Test [1] concerns Staphylococcus aureus. In words: Ratio of ciprofloxacin MIC to compound MIC for methicillin-resistant Staphylococcus aureus ATCC 43866 after 48 hrs by broth dilution technique. It is filed as functional.
Test [2] concerns Vero. In words: Cytotoxicity against African green monkey Vero cells assessed as reduction in cell viability after 72 hrs by MTT assay. It is filed as cell-based. The following applies: Chlorocebus sabaeus. (In general: Tetrazolium dyes change colour on reduction, which living cells bring about.)
For test [3], the system named is Escherichia coli. As to the kind of experiment: Antimicrobial activity against Escherichia coli ATCC 25922 after 48 hrs by broth dilution technique. It is filed as functional. Particulars: ATCC 25922, 48 h. A general note: Dilution methods test growth across graded concentrations, often in twofold steps.
For test [4], the system named is Staphylococcus aureus. In words: Antimicrobial activity against methicillin-resistant Staphylococcus aureus ATCC 43866 after 48 hrs by broth dilution technique. It is filed as functional. Particulars: ATCC 43866, 48 h.
Test [5] deals with Mycobacterium tuberculosis. In words: Antitubercular activity against Mycobacterium tuberculosis H37Rv after 7 days by Resazurin micro titer assay. It is filed as functional. The following applies: 168 h. For orientation: Resazurin is reduced to fluorescent resorufin, in cell work by metabolically active cells.
Test [6] relates to Candida albicans. In words: Ratio of Amphotericin B MIC to compound MIC for Candida albicans after 48 hrs by broth dilution technique. It is filed as functional.
Test [7] relates to Klebsiella pneumoniae. In words: Antimicrobial activity against Klebsiella pneumoniae after 48 hrs by broth dilution technique. It is filed as functional.
Test [8] deals with Staphylococcus aureus. In words: Antimicrobial activity against methicillin-sensitive Staphylococcus aureus ATCC 35556 after 48 hrs by broth dilution technique. It is filed as functional. Particulars: ATCC 35556, 48 h.
Test [9] relates to Candida albicans. As to the kind of experiment: Antimicrobial activity against Candida albicans after 48 hrs by agar dilution method. It is filed as functional.
Test [10] concerns Escherichia coli. As to the kind of experiment: Ratio of ciprofloxacin MIC to compound MIC for Escherichia coli ATCC 25922 after 48 hrs by broth dilution technique. It is filed as functional.
The subject of test [11] is Staphylococcus aureus. As to the kind of experiment: Ratio of ciprofloxacin MIC to compound MIC for methicillin-sensitive Staphylococcus aureus ATCC 35556 after 48 hrs by broth dilution technique. It is filed as functional.

Converted amounts (≈) assume the structure as drawn.

As usually defined, the IC50 is the concentration that gives 50% inhibition. The term MIC denotes the lowest concentration found to suppress growth. `Cn1cc([N+](=O)[O-])cc1C(=O)NNC(=S)NCc1ccccc1`: the figures for the Ratio in [1] and in test [6] were 4 and 2, respectively. For the same molecule, the 50% inhibitory concentration (IC50) in test [2] was determined as 239 µM. Further, the MIC in test [3] came to 1.56 µg/mL (≈ 4.68 µM); in [4] it was 1.56 µg/mL (≈ 4.68 µM); in test [5] it was 31.9 µg/mL (≈ 95.7 µM); in test [7] it was 3.12 µg/mL (≈ 9.37 µM); in [8] it was 0.78 µg/mL (≈ 2.34 µM); in test [9] it was 1.56 µg/mL (≈ 4.68 µM).
`O=C(NNC(=S)Nc1ccc(F)cc1)c1cc([N+](=O)[O-])c[nH]1`: in [2], the IC50 was 331 µM. The MIC in [3] came out at 1.56 µg/mL (≈ 4.83 µM); in test [4], 3.12 µg/mL (≈ 9.67 µM); in test [5] it was 0.56 µg/mL (≈ 1.73 µM); in test [7] it was 3.12 µg/mL (≈ 9.67 µM); in test [8] it was 1.56 µg/mL (≈ 4.83 µM); in test [9] it was 3.12 µg/mL (≈ 9.67 µM). In addition, in [6], the Ratio came to 4.
In the case of `O=C(NNC(=S)Nc1ccccc1F)c1cc([N+](=O)[O-])c[nH]1`, the IC50 in [2] turned out to be 471 µM. The MIC in [3] amounted to 1.56 µg/mL (≈ 4.83 µM); in [4], 3.12 µg/mL (≈ 9.67 µM); in test [5], 0.82 µg/mL (≈ 2.54 µM); in test [7] it was 3.12 µg/mL (≈ 9.67 µM); in test [8], 1.56 µg/mL (≈ 4.83 µM); in test [9], 3.12 µg/mL (≈ 9.67 µM). Also, the Ratio in test [6] is 4.
With `O=C(NNC(=S)Nc1ccc(Cl)cc1)c1cc([N+](=O)[O-])c[nH]1`, the IC50 in test [2] was 191 µM. Moreover, the minimal inhibitory concentration (MIC) came to 1.56 µg/mL (≈ 4.59 µM) in [3]; 3.12 µg/mL (≈ 9.2 µM) in test [4]; 1.3 µg/mL (≈ 3.83 µM) in [5]; 3.12 µg/mL (≈ 9.2 µM) in test [7]; 1.56 µg/mL (≈ 4.59 µM) in [8]; 3.12 µg/mL (≈ 9.2 µM) in test [9]. Also, the Ratio in [6] was determined as 4.
In the case of `O=C(NNC(=S)NCCc1ccccc1)c1cc([N+](=O)[O-])c[nH]1`, the half-maximal inhibitory concentration (IC50) in test [2] worked out at 281 µM. Moreover, the MIC in test [3] is 3.12 µg/mL (≈ 9.37 µM); in test [4], 3.12 µg/mL (≈ 9.37 µM); in [5], 3.9 µg/mL (≈ 11.7 µM); in [7] it was 6.25 µg/mL (≈ 18.7 µM); in test [8], 1.56 µg/mL (≈ 4.68 µM); in test [9], 3.12 µg/mL (≈ 9.37 µM). Also, the Ratio in test [6] is recorded as 4.
For `O=C(NNC(=S)NCc1ccccc1)c1cc([N+](=O)[O-])c[nH]1`, in test [2], the concentration for half-maximal inhibition (IC50) was 397 µM. For the same molecule, the minimal inhibitory concentration (MIC) in test [3] was 3.12 µg/mL (≈ 9.79 µM); in test [4], 6.25 µg/mL (≈ 19.6 µM); in [5], 7.3 µg/mL (≈ 22.9 µM); in [7], 6.25 µg/mL (≈ 19.6 µM); in test [8], 3.12 µg/mL (≈ 9.79 µM); in test [9], 3.12 µg/mL (≈ 9.79 µM). The Ratio in test [6] turned out to be 4.
Consider `O=C(NNC(=S)NC1CCCCC1)c1cc([N+](=O)[O-])c[nH]1`, for which the half-inhibitory concentration (IC50) in test [2] was 204 µM. Further, the minimal inhibitory concentration (MIC) in [3] amounted to 1.56 µg/mL (≈ 5.01 µM); in [4], 3.12 µg/mL (≈ 10 µM); in [5], 2.8 µg/mL (≈ 8.99 µM); in test [7], 3.12 µg/mL (≈ 10 µM); in [8], 1.56 µg/mL (≈ 5.01 µM); in [9] it was 3.12 µg/mL (≈ 10 µM). In addition, the Ratio in test [6] came to 4.
Turning to `Cn1cc([N+](=O)[O-])cc1C(=O)NNC(=S)Nc1ccc([N+](=O)[O-])cc1`, the Ratio turned out to be 8 in test [1], 4 in test [10], 4 in test [6] and 8 in test [11]. The half-maximal inhibitory concentration (IC50) in test [2] amounted to 395 µM. Also, the minimum inhibitory concentration (MIC) in test [3] was 0.39 µg/mL (≈ 1.07 µM); in [4] it was 0.39 µg/mL (≈ 1.07 µM); in test [5], 53.8 µg/mL (≈ 148 µM); in test [7], 1.56 µg/mL (≈ 4.28 µM); in test [8], 0.195 µg/mL (≈ 0.535 µM); in test [9], 0.78 µg/mL (≈ 2.14 µM).
For the molecule `COc1ccc(NC(=S)NNC(=O)c2cc([N+](=O)[O-])cn2C)cc1`, the Ratio in test [1] was determined as 8; in [10], 4; in test [6] it was 4; in test [11], 8. The IC50 in [2] was 184 µM. Besides, the minimum inhibitory concentration (MIC) came to 0.39 µg/mL (≈ 1.12 µM) in [3]; 0.39 µg/mL (≈ 1.12 µM) in [4]; 19.4 µg/mL (≈ 55.5 µM) in test [5]; 1.56 µg/mL (≈ 4.47 µM) in test [7]; 0.195 µg/mL (≈ 0.558 µM) in test [8]; 0.78 µg/mL (≈ 2.23 µM) in [9].
As for `Cn1cc([N+](=O)[O-])cc1C(=O)NNC(=S)Nc1ccc(F)cc1`, the Ratio was found to be 8 in test [1], 4 in test [10], 4 in [6] and 8 in test [11]. Besides, in [2], the concentration for half-maximal inhibition (IC50) came to 662 µM. The MIC was 0.39 µg/mL (≈ 1.16 µM) in [3]; 0.39 µg/mL (≈ 1.16 µM) in test [4]; 6.7 µg/mL (≈ 19.9 µM) in test [5]; 1.56 µg/mL (≈ 4.62 µM) in test [7]; 0.195 µg/mL (≈ 0.578 µM) in test [8]; 0.78 µg/mL (≈ 2.31 µM) in [9].
Regarding `Cn1cc([N+](=O)[O-])cc1C(=O)NNC(=S)Nc1ccccc1F`, the Ratio in test [1], in [10], in test [6] and in test [11] was 4 each time. In test [2], the concentration for half-maximal inhibition (IC50) is 293 µM. The MIC is 0.39 µg/mL (≈ 1.16 µM) in test [3]; 0.78 µg/mL (≈ 2.31 µM) in [4]; 3.2 µg/mL (≈ 9.49 µM) in test [5]; 1.56 µg/mL (≈ 4.62 µM) in test [7]; 0.39 µg/mL (≈ 1.16 µM) in test [8]; 0.78 µg/mL (≈ 2.31 µM) in test [9].
As for `Cn1cc([N+](=O)[O-])cc1C(=O)NNC(=S)Nc1ccc(Cl)cc1`, the Ratio in test [1] worked out at 8; in test [10], 4; in [6], 4; in [11] it was 8. Moreover, the concentration for half-maximal inhibition (IC50) in [2] is 210 µM. Also, the minimum inhibitory concentration (MIC) in test [3] amounted to 0.39 µg/mL (≈ 1.1 µM); in test [4], 0.39 µg/mL (≈ 1.1 µM); in test [5] it was 16.3 µg/mL (≈ 46.1 µM); in [7], 1.56 µg/mL (≈ 4.41 µM); in [8] it was 0.195 µg/mL (≈ 0.551 µM); in test [9] it was 0.78 µg/mL (≈ 2.2 µM).
Take `Cn1cc([N+](=O)[O-])cc1C(=O)NNC(=S)NC1CCCCC1`: the Ratio in test [1], in test [10], in test [6] and in [11] was 4 throughout. Further, the IC50 in [2] was 352 µM. In addition, the MIC in [3] was determined as 0.39 µg/mL (≈ 1.2 µM); in [4] it was 0.78 µg/mL (≈ 2.4 µM); in test [5] it was 27.5 µg/mL (≈ 84.5 µM); in test [7] it was 1.56 µg/mL (≈ 4.79 µM); in [8], 0.39 µg/mL (≈ 1.2 µM); in test [9], 0.78 µg/mL (≈ 2.4 µM).
For the molecule `Cc1ccccc1NC(=S)NNC(=O)c1cc([N+](=O)[O-])cn1C`, the IC50 in [2] was found to be 471 µM. Further, the MIC turned out to be 0.39 µg/mL (≈ 1.17 µM) in test [3]; 0.78 µg/mL (≈ 2.34 µM) in [4]; 11.9 µg/mL (≈ 35.7 µM) in test [5]; 1.56 µg/mL (≈ 4.68 µM) in test [7]; 0.39 µg/mL (≈ 1.17 µM) in test [8]; 0.78 µg/mL (≈ 2.34 µM) in test [9]. Besides, the Ratio in test [10], in test [6] and in test [11] was 4 throughout.
On to `COc1cc(NC(=S)NNC(=O)c2cc([N+](=O)[O-])cn2C)cc(OC)c1OC`, for which, in [2], the half-maximal inhibitory concentration (IC50) came to 392 µM. The minimum inhibitory concentration (MIC) in [3] came out at 0.39 µg/mL (≈ 0.953 µM); in test [4], 1.56 µg/mL (≈ 3.81 µM); in test [5] it was 21.5 µg/mL (≈ 52.5 µM); in test [7], 1.56 µg/mL (≈ 3.81 µM); in test [8], 0.78 µg/mL (≈ 1.91 µM); in test [9], 0.78 µg/mL (≈ 1.91 µM). The Ratio in test [10] and in [6] was 4 throughout.
